Our source for the TGI values is PubChem BioAssay (NCI).

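Results reflect a 48-hour exposure of cells in 96-well plates to compound at five concentrations. TGI denotes the concentration required for complete inhibition of growth.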 Where a SMILES comes first, the peptide text is derived from it. Side-chain parts run from the residue outwards. The star is where a group is joined. Cbz = O=C(OCc1ccccc1)*; Boc = CC(C)(C)OC(=O)*

Among the test systems are DU-145 prostate; EKVX NSCLC; MCF7 breast; OVCAR-5 ovarian; TK-10 renal; U251 CNS; HOP-92 NSCLC.
What all share (assay): inhibition of tumour cell growth, NCI panel, 48 h

Take `CCOC1NC(/N=C/c2ccc(OC)cc2)=C(C#N)C1C#N` (stereo unspecified): the TGI in the test on DU-145 prostate, in the test with EKVX NSCLC, with MCF7 breast, in the test with OVCAR-5 ovarian, in the test with TK-10 renal and in the test on U251 CNS was above 100 µM in each case.
Consider `CCN(CC)c1ccc2cc(C(N)=O)c(=Nc3ccc(F)cc3)oc2c1`, for which the TGI in the test on EKVX NSCLC was above 100 µM; in the test on HOP-92 NSCLC it was above 100 µM; with MCF7 breast it was above 100 µM; with OVCAR-5 ovarian it was above 100 µM; in the test on TK-10 renal, 44.7 µM; in the test on U251 CNS, above 100 µM.
Consider `O=C1C=C(O)c2c(O)ccc(O)c2C1=O`, for which the TGI in the test with DU-145 prostate, in the test with HOP-92 NSCLC, in the test with MCF7 breast, in the test on OVCAR-5 ovarian, in the test on TK-10 renal and in the test with U251 CNS was above 100 µM in each case.
In the case of `N#CCc1nc2cc(C(F)(F)F)ccc2s1`, the TGI was above 100 µM in the test with DU-145 prostate; above 100 µM with EKVX NSCLC; 48.1 µM with HOP-92 NSCLC; above 100 µM in the test on OVCAR-5 ovarian; above 100 µM in the test with TK-10 renal; above 100 µM in the test with U251 CNS.
Consider `O=C(c1ccccc1O)c1cc(-c2ncc3c(=O)c4ccccc4oc3n2)c(-c2ccccc2O)[nH]c1=O`, for which the TGI with EKVX NSCLC is above 92 µM; with HOP-92 NSCLC it was 52 µM; in the test with MCF7 breast it was 34.2 µM; with OVCAR-5 ovarian, 62.8 µM; in the test on U251 CNS it was 27.7 µM.
On to `COc1ccc(CCCN2c3ccccc3Sc3ccccc32)cc1`, for which the TGI with EKVX NSCLC, with HOP-92 NSCLC, in the test on OVCAR-5 ovarian, in the test on TK-10 renal and in the test with U251 CNS was above 100 µM throughout.
For `Cc1ccc(C#CS(=O)(=O)C(F)(F)F)cc1`, the TGI with EKVX NSCLC, in the test with HOP-92 NSCLC, in the test on MCF7 breast, in the test on OVCAR-5 ovarian and in the test on U251 CNS was above 100 µM in each case.
`COc1ccc(C2=C(Cl)c3cc(OC)c(OC)cc3C2)cc1OC`: the TGI in the test on EKVX NSCLC, with HOP-92 NSCLC and in the test with U251 CNS was above 100 µM in each case.
For the compound `C[N+]1([O-])[C@H]2CC(OC(=O)[C@H](CO)c3ccccc3)C[C@H]1[C@H]1O[C@H]12` (stereo partly specified), the TGI in the test with DU-145 prostate, in the test with EKVX NSCLC, with MCF7 breast, in the test with OVCAR-5 ovarian, with TK-10 renal and in the test with U251 CNS was above 100 µM throughout.
As to `O=S1(=O)OCCCOS(=O)(=O)C1(Br)Br`, the TGI in the test on DU-145 prostate, in the test on EKVX NSCLC, in the test with MCF7 breast, with OVCAR-5 ovarian, in the test on TK-10 renal and in the test on U251 CNS was above 100 µM throughout.
As for `CC(C)C1=C(Cc2ccccc2)C(=O)O/C1=C\c1ccc(O)c(Cl)c1`, the TGI with DU-145 prostate was found to be 32.4 µM; with EKVX NSCLC, 30.3 µM; with MCF7 breast, 30.3 µM; with OVCAR-5 ovarian, 32.3 µM; in the test on TK-10 renal it was 31.8 µM; in the test with U251 CNS, 30.3 µM.
As for `CC(C)(C)OC(=O)NC(CCCCNC(=O)CNC(=O)OCc1ccccc1)C(=O)NC(CCCCNC(=O)CNC(=O)OCc1ccccc1)C(=O)NC(CCCCNC(=O)CNC(=O)OCc1ccccc1)C(=O)NC(CCCCNC(=O)CNC(=O)OCc1ccccc1)C(=O)O` (stereo unspecified) (Boc-K([Gly-Cbz])K([Gly-Cbz])K([Gly-Cbz])K([Gly-Cbz])-OH; configuration not given here), the TGI with DU-145 prostate, in the test with MCF7 breast, in the test with OVCAR-5 ovarian, in the test with TK-10 renal and in the test on U251 CNS was above 100 µM throughout.
Turning to `N#Cc1c(N2CCCC2)nsc1Nc1ccc(F)cc1`, the TGI with DU-145 prostate, in the test with EKVX NSCLC, with HOP-92 NSCLC, with OVCAR-5 ovarian, in the test with TK-10 renal and in the test on U251 CNS was above 100 µM each time.
For `OC(C1CCCCCCCCCC1)C(O)C1CCCCCCCCCC1` (stereo unspecified), the TGI with DU-145 prostate, in the test on EKVX NSCLC, with MCF7 breast, in the test with OVCAR-5 ovarian, in the test with TK-10 renal and in the test with U251 CNS was above 100 µM each time.
For `O=S(c1ccc(Cl)cc1)c1ccccc1C1=NCCN1` (stereo unspecified), the TGI in the test on DU-145 prostate, in the test with EKVX NSCLC, in the test with MCF7 breast, with OVCAR-5 ovarian, in the test with TK-10 renal and in the test on U251 CNS was above 100 µM each time.
In the case of `N#Cc1ccc2[nH]c3c(c2c1)CC(=O)Nc1ccccc1-3`, the TGI in the test on EKVX NSCLC, in the test with HOP-92 NSCLC, with MCF7 breast, with OVCAR-5 ovarian, in the test on TK-10 renal and in the test with U251 CNS was above 100 µM in each case.
For `COc1ccc([C@H]2c3cc4c(cc3OC(O)(CO)[C@H]2C(=O)O)OCO4)c(OC)c1` (stereo partly specified) (tested in a mixture with another compound), the TGI in the test with EKVX NSCLC, with HOP-92 NSCLC, in the test on OVCAR-5 ovarian, in the test on TK-10 renal and in the test on U251 CNS was above 100 µM in each case.
As for `COc1ccc(C2C(C#N)=C(S)N(C3OC(CO)C(O)C(O)C3O)C(C)=C2C(C)=O)cc1` (stereo unspecified), the TGI in the test on DU-145 prostate, with HOP-92 NSCLC, in the test on MCF7 breast, in the test with OVCAR-5 ovarian, in the test on TK-10 renal and with U251 CNS was above 100 µM in each case.
Consider `CC(=O)N1C(Nc2cccc3nc(C)ccc23)CCN1c1ccccc1` (stereo unspecified), for which the TGI in the test on DU-145 prostate, in the test on EKVX NSCLC, in the test on MCF7 breast, with OVCAR-5 ovarian and with TK-10 renal was above 10 µM throughout.
As for `CC(=O)OCC1OC(SC2=NC(=O)/C(=C/c3ccccc3)S2)C(OC(C)=O)C(OC(C)=O)C1OC(C)=O` (stereo unspecified), the TGI in the test with DU-145 prostate was above 100 µM; with EKVX NSCLC it was 70.4 µM; in the test on HOP-92 NSCLC, 44.2 µM; in the test on MCF7 breast, 52.2 µM; in the test on OVCAR-5 ovarian it was above 100 µM; with U251 CNS it was 91 µM.
For the compound `COc1cc2c(c(OC)c1OC)-c1ccc(SC)c(=O)cc1[C@@H](NCc1cccc([N+](=O)[O-])c1)CC2`, the TGI in the test on EKVX NSCLC is above 100 µM; in the test with HOP-92 NSCLC, above 100 µM; in the test with OVCAR-5 ovarian, above 100 µM; in the test with TK-10 renal, above 100 µM; with U251 CNS, below 0.01 µM.
